The values below come from article PMC8596838, “Xylose‐Configured Cyclophellitols as Selective Inhibitors for Glucocerebrosidase” (Chembiochem, 2021).

The target in this test is T1, GBA2 E527G mutant and E527G/D667G double mutant (Homo sapiens, UniProt Q9HCG7, E527G).
T1 construct: expressed in transfected cells; host or cells: HEK293T
T1 sequence (Q9HCG7 1-927 E527G): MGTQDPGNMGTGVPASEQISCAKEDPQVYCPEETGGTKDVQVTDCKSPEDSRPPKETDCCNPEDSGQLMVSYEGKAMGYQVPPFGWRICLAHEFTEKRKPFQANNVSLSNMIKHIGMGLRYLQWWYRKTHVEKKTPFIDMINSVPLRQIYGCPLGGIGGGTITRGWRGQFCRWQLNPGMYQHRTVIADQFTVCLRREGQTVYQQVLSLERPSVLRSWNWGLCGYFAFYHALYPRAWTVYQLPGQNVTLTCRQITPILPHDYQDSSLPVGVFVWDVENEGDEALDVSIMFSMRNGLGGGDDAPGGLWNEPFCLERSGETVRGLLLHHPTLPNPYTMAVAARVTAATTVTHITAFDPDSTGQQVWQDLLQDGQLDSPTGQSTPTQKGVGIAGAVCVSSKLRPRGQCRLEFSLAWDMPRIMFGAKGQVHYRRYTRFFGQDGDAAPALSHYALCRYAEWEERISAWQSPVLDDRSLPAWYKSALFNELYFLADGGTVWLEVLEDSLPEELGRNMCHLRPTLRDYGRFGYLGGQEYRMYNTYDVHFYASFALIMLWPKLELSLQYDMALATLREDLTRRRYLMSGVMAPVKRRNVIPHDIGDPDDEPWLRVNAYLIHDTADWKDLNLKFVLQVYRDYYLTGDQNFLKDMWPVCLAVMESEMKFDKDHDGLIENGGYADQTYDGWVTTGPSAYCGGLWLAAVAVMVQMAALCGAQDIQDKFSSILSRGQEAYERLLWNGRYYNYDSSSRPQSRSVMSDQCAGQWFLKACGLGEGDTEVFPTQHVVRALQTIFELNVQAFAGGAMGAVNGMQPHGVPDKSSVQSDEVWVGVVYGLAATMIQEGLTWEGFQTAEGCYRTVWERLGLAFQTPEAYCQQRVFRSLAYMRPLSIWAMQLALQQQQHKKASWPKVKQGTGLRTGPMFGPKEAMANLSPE
The experiment in a line: ABP labeling of mutant GBA2 expressed in HEK293T cells. Type of test: biochemical. The settings on record: HEK293T cells expressing mutant GBA2. On the procedure: Figure 4 (A) ABP labeling of β‐D‐glucosidases. A lysate of HEK293T cells expressing human GBA, GBA2 and GBA3 was incubated with indicated ABPs (6, 9 or 10) for 30 min at pH 6.0. Fluorescently labeled proteins were visualized after SDS‐PAGE. (B) Labeling with ABP 6 of wild type or mutant GBA2 (E527G nucleophile mutation and D667G acid/base mutation) expressed in HEK293T cells.
Cell culture: HEK293T (CRL‐3216) were purchased from ATCC (Manassas, VA, USA). HEK293T cells were cultured in DMEM medium (Sigma‐Aldrich), supplied with 10 % (v/v) FCS, 0.1 % (w/v) penicillin/streptomycin and 1 % (v/v) Glutamax, under 7 % CO2. […] First the GBA Knockout cells were generated using the annealed oligonucleotides (top strand) 5’‐CACCGCGCTATGAGAGTACACGCAG‐3’ and (bottom strand 5’‐AAACCTGCGTGTACTCTCATAGCGC‐3’ and after ligation in the BbsI site of the px330 and subsequent transfection into the HEK293T cells. Single cells were created and the different clones were analyzed for lack of expression of GBA with enzyme activity assays and ABPs and subsequent genomic sequence analysis. The true GBA knockout cells were next used to create the GBA/GBA2 double knockout cells (using the px330 and the following annealed and ligated oligonucleotides (top strand 5‐CACCGGACGGACTGCTGCAATCCGG‐3’ and bottom strand 5’‐AAACCCGGATTGCAGCAGTCCGTCC‐3’. […]

Consider `CN1/C(=C/C=C/C=C/C2=[N+](CCCCCC(=O)NCc3cn(CCCCCCCCN4[C@H]5[C@H](O)[C@@H](O)[C@H](O)C[C@H]54)nn3)c3ccccc3C2(C)C)C(C)(C)c2ccccc21` (stereo partly shown) [ABP 6], for which the “labeling of GBA2 E527G mutant and E527G/D667G double mutant” value is “no longer labeled”.
